Results as given in US20220273659A1, “HETEROCYCLIC COMPOUNDS AS KINASE INHIBITORS” (NUVATION BIO INC., priority 2019, published 2022).

How the values were obtained:
CDK4 = biological target: T1, CDK4 (Homo sapiens, UniProt P11802); experiment: In vitro kinase inhibition IC50, luminescence (ADP Glo), retinoblastoma substrate; assay type: biochemical; conditions: read-out: CDK4/D1 IC50
T1 construct: purchased Invitrogen PR8064A
Procedure: (§1) IC50 values of compounds against CDK4 and CDK6 were determined by luminescence using retinoblastoma as substrate. Kinase assays were performed in kinase buffer (#PV6135, Invitrogen Life Technologies, Grand Island, N.Y.) where total reaction volume was […] in 96-well half area white plates (#3693, Costar). One microliter of 25×test compounds at specific concentrations (e.g., final concentration range: 0.1 nM-200 nM) was mixed with 10 μL of 2.5×kinase (5 nM, CDK4 #PR8064A and CDK6 #PR8422B, Invitrogen) solution and 14 μL of 4× mixed solution with retinoblastoma (1 μM, #12-439, EMD Millipore, Hayward, Calif.) and ATP (25 μM, #V7038, Promega, Madison, Wis.). The plates were covered and incubated for 2H at room temperature. At the end of incubation, 25 μL of stop solution—ADP Glo reagent (#V7002, Promega) was added. After incubation for 45 min at room temperature, 50 μL of detection reagent (##V7002, Promega) was added. Readings were taken at 15 min and 45 min incubation after detection reagent was added in a Synergy Neo Plate reader (BioTek, Winooski, Vt.) at single excitation of 340 nm and Dual emission at 495 nm and 520 nm respectively. The following equations were used in the CDK4 and CDK6 assay data analysis. Percent inhibition (100-% activity) was fitted to the “four-parameter logistic model” in XLfit for determination of IC50 values.
(§2) Percent conversion of enzyme=100−{(RLUNo Drug−No enzyme*100)/RLUNo drug+Enzyme} Equation 1:
(§3) Percent conversion at each data point=100−{(RLUAverage(Drug+enzyme)*100)!RLUNo drug+Enzyme} Equation 2:
(§4) Percent Inhibition=100*(% Conversioneach data point/% ConversionEnzyme) Equation 3: […]

FMS kinase = biological target: T2, FMS kinase (Homo sapiens, UniProt P07333); experiment: LanthaScreen Eu Kinase Binding Assay (ATP, fluorescent-PolyGT substrate); assay type: biochemical
T2 construct: purchased Invitrogen (Life Technologies)
Procedure: IC50 values of compounds against FMS kinase were determined by LanthaScreen™ Eu Kinase Binding Assay at Invitrogen (Life Technologies Grand Island, N.Y.) where total reaction volume was 10 μL in low-volume 384-well plates (#4511, Corning). Serially diluted compounds (3-fold) were incubated with kinase (1.25 nM) for 10 min, following which a mixture of ATP (10 μM) (#A1852, Sigma, St-Louis, Mo.) and fluorescent-PolyGT substrate (200 nM) (#PV3610, Invitrogen, Life Technologies Grand Island, N.Y.) was added and incubated in dark at room temperature for 1H. After 1H, 10 μL stop solution containing Terbium labeled antibody (4 nM) (#PV3529, Invitrogen, Life Technologies Grand Island, N.Y.) and EDTA (#E5134, Sigma, St-Louis, Mo.) (20 mM) in TR-FRET dilution buffer (#PV3574, Invitrogen, Life Technologies Grand Island, N.Y.) was added. Readings were taken in a Synergy Neo Plate reader (BioTek, Winooski) at single excitation of 340 nm and Dual emission at 495 nm and 520 nm respectively.
The following equations were used for LanthaScreen Eu Kinase Binding Assay Data Analysis. Percent inhibition (100-% activity) was fitted to the “four-parameter logistic model” in XLfit for determination of IC50 values.

PI3Kδ kinase = biological target: T3, PI3Kδ kinase (Homo sapiens, UniProt O00329); experiment: PI3Kδ kinase assay (ADP-Glo, Reaction Biology); assay type: biochemical
T3 construct: purchased Reaction Biology Corporation (assay service)
Procedure: IC50 values of compounds against the PI3Kδ kinase were determined by an assay performed by Reaction Biology Corporation (Malvern, Pa.). Briefly, this assay was conducted in buffer (Tris-HCl 40 mM (pH7.5), Orthovanadate 3 mM, MgCl2 20 mM, DTT 2 mM, CHAPS 0.05%, DMSO 1%). PI3Kδ kinase was added to the reaction solution and mixed gently. The test compounds in 100% DMSO (at specific solutions) were mixed with the kinase reaction mixture to achieve the final compounds at pre-defined concentrations (e.g., range −0.5 nM to 100 μM) by Acoustic technology (Echo550; nanoliter range). After incubating for 10 min at room temp, ATP was added into the reaction mixture to initiate the reaction followed by a 30-min incubation at 30° C. After quenching the reaction with ADP-Glo reagent, the plates were incubated for 40 min. The Detection Mixture was added, and the plate was incubated for an additional 30 min. At the end of incubation, luminescence was measured. For data analysis, the luminescence was converted into μM ADP production based on ADP standard curves. The nonlinear regression to obtain the standard curve and IC50 values was performed using GraphPad Prism (GraphPad Software, Inc., San Diego, Calif.).

CDK6 = biological target: T4, CDK6 (Homo sapiens, UniProt Q00534); experiment: In vitro kinase inhibition IC50, luminescence (ADP Glo), retinoblastoma substrate; assay type: biochemical; conditions: read-out: CDK6/D1 IC50
T4 construct: purchased Invitrogen PR8422B
Procedure: as §1, §2, §3, §4

[1] = tested on: MCF-7 breast adenocarcinoma cells; experiment: Cancer cell proliferation assay, single agent (cell viability); assay type: cell-based; conditions: Homo sapiens, MCF7, Table 4; Rb positive; treatment 144 Hr with medium change at 72 Hr; Cell Titer-Glo or resazurin
Procedure: (§5) The effects of test compounds were studied in three breast cancer cell lines of different subtype. The cancer cells (Table 3) were harvested during the logarithmic growth period and counted. Cell concentrations were adjusted to the appropriate number with respective medium and 90 μL cell suspensions were added to 96-well plates. After cells were seeded, the plates were shaken gently to distribute cells evenly and incubated at 37° C., 5% CO2 on day 1.
(§6) Cells were treated with test compounds at 7 to 9 concentrations within a desired concentration range (e.g. 1.1 nM-10 μM) on day 2 by series diluting the test compound stock solution (10 mM in DMSO) with culture medium. Treatment duration was 24 Hr for BT-549 cells and 144 Hr (with a medium change at 72 Hr) for MCF-7 and DU4475 cells. Cell viability was assessed by Cell Titer-Glo® as recommended by Promega (Cat. No.: G7572), or by resazurin assay (Sigma Aldrich, Cat. No.: R7017) post treatment.
(§7) Cell viability data were plotted using GraphPad Prism (GraphPad Software, Inc., San Diego, Calif.). In addition, a nonlinear regression model with a sigmoidal dose response and variable slope within GraphPad Prism was used to calculate the IC50 value of individual test compounds.

[2] = tested on: DU4475 breast carcinoma cells; experiment: as above; assay type: cell-based; conditions: Homo sapiens, DU-4475; Table 4; Rb negative; treatment 144 Hr with medium change at 72 Hr; Cell Titer-Glo or resazurin
Procedure: as §5, §6, §7

T3 sequence (O00329 whole entry): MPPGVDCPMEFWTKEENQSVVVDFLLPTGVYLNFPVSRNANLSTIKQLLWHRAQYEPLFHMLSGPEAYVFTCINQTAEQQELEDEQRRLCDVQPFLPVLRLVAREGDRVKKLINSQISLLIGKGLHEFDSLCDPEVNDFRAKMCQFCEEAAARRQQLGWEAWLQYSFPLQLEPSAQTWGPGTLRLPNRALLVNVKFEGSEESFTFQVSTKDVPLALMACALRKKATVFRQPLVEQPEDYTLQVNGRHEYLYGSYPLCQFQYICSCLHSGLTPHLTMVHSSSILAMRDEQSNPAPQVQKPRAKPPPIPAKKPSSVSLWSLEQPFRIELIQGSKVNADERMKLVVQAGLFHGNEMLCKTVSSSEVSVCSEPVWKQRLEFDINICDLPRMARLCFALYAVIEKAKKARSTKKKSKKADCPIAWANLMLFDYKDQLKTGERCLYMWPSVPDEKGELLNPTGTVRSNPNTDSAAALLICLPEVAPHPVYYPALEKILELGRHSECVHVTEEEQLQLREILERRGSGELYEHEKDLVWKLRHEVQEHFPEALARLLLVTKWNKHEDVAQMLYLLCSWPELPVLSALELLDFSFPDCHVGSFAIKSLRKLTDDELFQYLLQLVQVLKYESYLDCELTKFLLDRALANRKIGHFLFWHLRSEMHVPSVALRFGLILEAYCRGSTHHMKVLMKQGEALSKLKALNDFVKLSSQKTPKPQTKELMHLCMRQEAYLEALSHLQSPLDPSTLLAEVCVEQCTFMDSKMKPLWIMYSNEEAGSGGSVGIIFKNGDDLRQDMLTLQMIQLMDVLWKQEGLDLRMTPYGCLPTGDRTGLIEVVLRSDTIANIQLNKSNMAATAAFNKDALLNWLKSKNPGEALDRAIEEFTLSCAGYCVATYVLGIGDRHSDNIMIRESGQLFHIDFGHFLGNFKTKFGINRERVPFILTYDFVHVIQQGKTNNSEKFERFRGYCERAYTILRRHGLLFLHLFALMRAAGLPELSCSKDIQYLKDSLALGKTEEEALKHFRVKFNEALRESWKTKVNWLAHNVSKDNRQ
T3 sequence (P27986 whole entry partner): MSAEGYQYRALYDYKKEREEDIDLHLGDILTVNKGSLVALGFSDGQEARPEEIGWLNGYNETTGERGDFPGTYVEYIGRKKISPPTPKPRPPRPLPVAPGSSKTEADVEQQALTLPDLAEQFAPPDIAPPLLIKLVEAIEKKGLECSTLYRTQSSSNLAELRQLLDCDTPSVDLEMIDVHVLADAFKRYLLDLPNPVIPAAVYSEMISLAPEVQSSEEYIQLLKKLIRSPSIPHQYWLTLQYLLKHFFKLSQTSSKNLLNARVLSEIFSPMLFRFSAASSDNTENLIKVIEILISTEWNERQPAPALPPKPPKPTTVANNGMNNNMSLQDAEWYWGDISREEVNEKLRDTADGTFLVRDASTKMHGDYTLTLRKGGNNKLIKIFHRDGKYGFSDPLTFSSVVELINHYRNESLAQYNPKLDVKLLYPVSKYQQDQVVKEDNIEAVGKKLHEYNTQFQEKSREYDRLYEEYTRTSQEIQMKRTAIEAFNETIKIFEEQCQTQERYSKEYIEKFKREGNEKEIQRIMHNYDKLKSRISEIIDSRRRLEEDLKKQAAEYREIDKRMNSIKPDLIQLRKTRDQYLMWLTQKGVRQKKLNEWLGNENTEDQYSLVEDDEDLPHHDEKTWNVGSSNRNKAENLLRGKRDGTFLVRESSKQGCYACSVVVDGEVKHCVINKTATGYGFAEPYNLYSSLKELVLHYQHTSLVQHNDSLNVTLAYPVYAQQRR
T4 sequence (Q00534 whole entry): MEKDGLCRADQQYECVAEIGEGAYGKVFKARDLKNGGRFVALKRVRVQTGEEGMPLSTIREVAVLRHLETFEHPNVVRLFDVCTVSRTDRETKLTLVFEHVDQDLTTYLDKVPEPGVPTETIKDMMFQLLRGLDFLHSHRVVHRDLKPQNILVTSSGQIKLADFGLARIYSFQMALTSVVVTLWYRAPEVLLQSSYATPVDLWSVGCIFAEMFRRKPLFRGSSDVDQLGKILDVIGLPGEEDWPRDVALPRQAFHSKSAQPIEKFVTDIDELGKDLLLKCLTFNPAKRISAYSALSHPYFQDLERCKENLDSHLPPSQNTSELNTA
T4 sequence (P24385 whole entry partner): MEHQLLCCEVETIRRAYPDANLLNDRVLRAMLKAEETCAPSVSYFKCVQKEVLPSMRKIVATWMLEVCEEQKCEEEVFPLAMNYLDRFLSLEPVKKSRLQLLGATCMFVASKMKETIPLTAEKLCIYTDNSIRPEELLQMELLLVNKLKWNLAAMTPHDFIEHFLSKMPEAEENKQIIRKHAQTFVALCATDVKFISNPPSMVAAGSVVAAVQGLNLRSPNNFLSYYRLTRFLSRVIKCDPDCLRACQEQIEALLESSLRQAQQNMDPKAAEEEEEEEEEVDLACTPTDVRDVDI
T2 sequence (P07333 20-972): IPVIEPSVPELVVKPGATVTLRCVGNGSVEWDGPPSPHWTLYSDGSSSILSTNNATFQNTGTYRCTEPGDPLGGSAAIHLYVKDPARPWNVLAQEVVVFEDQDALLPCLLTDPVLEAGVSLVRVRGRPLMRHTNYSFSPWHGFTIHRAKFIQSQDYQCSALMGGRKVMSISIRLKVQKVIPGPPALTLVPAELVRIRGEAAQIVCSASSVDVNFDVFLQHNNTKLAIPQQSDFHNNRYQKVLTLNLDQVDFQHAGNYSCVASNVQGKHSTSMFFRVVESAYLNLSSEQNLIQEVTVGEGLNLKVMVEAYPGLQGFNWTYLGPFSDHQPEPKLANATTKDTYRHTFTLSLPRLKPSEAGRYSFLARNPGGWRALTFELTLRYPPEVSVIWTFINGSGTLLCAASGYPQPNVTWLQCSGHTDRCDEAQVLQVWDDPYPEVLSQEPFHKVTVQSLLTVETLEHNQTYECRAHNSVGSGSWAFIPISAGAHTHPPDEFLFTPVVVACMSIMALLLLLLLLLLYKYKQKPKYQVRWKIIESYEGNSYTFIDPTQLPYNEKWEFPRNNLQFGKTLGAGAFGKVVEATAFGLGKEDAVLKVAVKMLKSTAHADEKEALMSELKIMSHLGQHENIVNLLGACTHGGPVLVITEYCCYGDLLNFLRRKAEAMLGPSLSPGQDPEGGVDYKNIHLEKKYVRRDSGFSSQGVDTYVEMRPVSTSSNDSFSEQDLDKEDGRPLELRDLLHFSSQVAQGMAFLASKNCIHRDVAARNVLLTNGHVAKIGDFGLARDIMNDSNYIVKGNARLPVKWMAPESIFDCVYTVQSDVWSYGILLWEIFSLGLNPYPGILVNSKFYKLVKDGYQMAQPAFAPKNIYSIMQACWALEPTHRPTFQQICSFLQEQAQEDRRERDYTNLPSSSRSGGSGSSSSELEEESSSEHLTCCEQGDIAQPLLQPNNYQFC
T1 sequence (P11802 whole entry): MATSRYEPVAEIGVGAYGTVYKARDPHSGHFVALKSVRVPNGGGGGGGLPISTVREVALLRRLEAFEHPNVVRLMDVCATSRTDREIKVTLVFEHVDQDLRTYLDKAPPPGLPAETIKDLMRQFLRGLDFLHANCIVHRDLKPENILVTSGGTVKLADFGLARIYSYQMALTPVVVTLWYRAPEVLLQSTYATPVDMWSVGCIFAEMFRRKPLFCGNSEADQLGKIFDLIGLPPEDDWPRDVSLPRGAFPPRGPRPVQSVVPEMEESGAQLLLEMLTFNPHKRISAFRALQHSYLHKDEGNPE
T1 sequence (P24385 whole entry partner): as the sequence (P24385 whole entry partner) above

| SMILES | IC50 (CDK4) [nM] | IC50 (FMS kinase) [nM] | IC50 (PI3Kδ kinase) [nM] | IC50 (CDK6) [nM] | IC50 [1] [nM] | IC50 [2] [nM] |
| --- | --- | --- | --- | --- | --- | --- |
| CN1CCN(CCCn2cc(Nc3ncc4cc(C#N)c(=O)n(C5CCCC5)c4n3)cn2)CC1 [Compound 56] | > 200 | > 5000 | > 30000 |  |  |  |
| CN1CCN(C(=O)Cn2cc(Nc3ncc4cc(C#N)c(=O)n(C5CCCC5)c4n3)cn2)CC1 [Compound 58] | > 200 | 4520 | > 30000 |  |  |  |
| CN1CCN(c2ccc(Nc3ncc4cc(C#N)c(=O)n([C@H]5CC[C@H](C)CC5)c4n3)cc2)CC1 [Compound No. 1, 8-((1r,4r)-4-methylcyclohexyl)-2-((4-(4-methylpiperazin-1-yl)phenyl)amino)-7-oxo-7,8-dihydropyrido[2,3-d]pyrimidine-6-carbonitrile] | 2 | < 300 | 389 | 1 | 8060 |  |
| C[C@H]1CC[C@H](n2c(=O)c(C#N)cc3cnc(Nc4cccc(S(N)(=O)=O)c4)nc32)CC1 [Compound No. 2, 3-((6-cyano-8-((1r,4r)-4-methylcyclohexyl)-7-oxo-7,8-dihydropyrido[2,3-d]pyrimidin-2-yl)amino)benzenesulfonamide] |  | 180 | 129 |  |  |  |
| N#Cc1cc2cnc(Nc3cccc(S(N)(=O)=O)c3)nc2n(C2CCCC2)c1=O [Compound No. 3, 3-((6-cyano-8-cyclopentyl-7-oxo-7,8-dihydropyrido[2,3-d]pyrimidin-2-yl)amino)benzenesulfonamide] | 12 | 35 | 130 | 14 |  |  |
| C[C@H]1CC[C@H](n2c(=O)c(C#N)cc3cnc(Nc4cccc(C(N)=O)c4)nc32)CC1 [Compound No. 4, 3-((6-cyano-8-((1r,4r)-4-methylcyclohexyl)-7-oxo-7,8-dihydropyrido[2,3-d]pyrimidin-2-yl)amino)benzamide] |  | 1 | 2730 |  |  |  |
| N#Cc1cc2cnc(Nc3cccc(C(N)=O)c3)nc2n(C2CCCC2)c1=O [Compound No. 5, 3-((6-cyano-8-cyclopentyl-7-oxo-7,8-dihydropyrido[2,3-d]pyrimidin-2-yl)amino)benzamide] | 212 | 1 | 444 | 48 |  |  |
| N#Cc1cc2cnc(Nc3ccc4c(c3)NC(=O)CC4)nc2n(C2CCCC2)c1=O [Compound No. 9, 8-cyclopentyl-7-oxo-2-((2-oxo-1,2,3,4-tetrahydroquinolin-7-yl)amino)-7,8-dihydropyrido[2,3-d]pyrimidine-6-carbonitrile] |  | < 1 | 955 |  |  |  |
| CN(C)CCNC(=O)c1cccc(Nc2ncc3cc(C#N)c(=O)n(C4CCCC4)c3n2)c1 [Compound No. 11, 3-((6-cyano-8-cyclopentyl-7-oxo-7,8-dihydropyrido[2,3-d]pyrimidin-2-yl)amino)-N-(2-(dimethylamino)ethyl)benzamide] |  | 2.4 | 1030 |  |  |  |
| N#Cc1cc2cnc(Nc3ccc(N4CCNCC4=O)cc3)nc2n(C2CCCC2)c1=O [Compound No. 12, 8-cyclopentyl-7-oxo-2-((4-(2-oxopiperazin-1-yl)phenyl)amino)-7,8-dihydropyrido[2,3-d]pyrimidine-6-carbonitrile] |  | 0.4 | 1330 |  | 2500 |  |
| N#Cc1cc2cnc(Nc3ccc(S(=O)(=O)N4CCC(O)CC4)cc3)nc2n(C2CCCC2)c1=O [Compound No. 14, 8-cyclopentyl-2-((4-((4-hydroxypiperidin-1-yl)sulfonyl)phenyl)amino)-7-oxo-7,8-dihydropyrido[2,3-d]pyrimidine-6-carbonitrile] |  | 2.5 | 976 |  |  |  |
| CN1CCN(S(=O)(=O)c2ccc(Nc3ncc4cc(C#N)c(=O)n(C5CCCC5)c4n3)cc2)CC1 [Compound No. 15, 8-cyclopentyl-2-((4-((4-methylpiperazin-1-yl)sulfonyl)phenyl)amino)-7-oxo-7,8-dihydropyrido[2,3-d]pyrimidine-6-carbonitrile] |  | 5.5 | 3730 |  |  |  |
| CCC(CC)n1c(=O)c(C#N)cc2cnc(Nc3ccc4c(c3)CCNC4)nc21 [Compound No. 86, 7-oxo-8-(pentan-3-yl)-2-((1,2,3,4-tetrahydroisoquinolin-6-yl)amino)-7,8-dihydropyrido[2,3-d]pyrimidine-6-carbonitrile] | 177 |  | 840 | 25 | 532 | 1400 |
| CN1CCN(c2ccc(Nc3ccc4cc(C#N)c(=O)n(C5CCCC5)c4n3)cc2)CC1 [Compound No. 96, 1-cyclopentyl-7-((4-(4-methylpiperazin-1-yl)phenyl)amino)-2-oxo-1,2-dihydro-1,8-naphthyridine-3-carbonitrile] | > 200 |  | > 50000 | 154 | 2440 | 1700 |
| N#Cc1cc2ccc(Nc3ccc4c(c3)CCNC4)nc2n(C2CCCC2)c1=O [Compound No. 97, 1-cyclopentyl-2-oxo-7-((1,2,3,4-tetrahydroisoquinolin-6-yl)amino)-1,2-dihydro-1,8-naphthyridine-3-carbonitrile] | > 200 |  | > 50000 | > 200 | 1610 | 1270 |
| CN1CCC(c2ccc(Nc3ccc4cc(C#N)c(=O)n(C5CCCC5)c4n3)cc2)CC1 [Compound No. 98, 1-cyclopentyl-7-((4-(1-methylpiperidin-4-yl)phenyl)amino)-2-oxo-1,2-dihydro-1,8-naphthyridine-3-carbonitrile] | > 200 |  | > 50000 | > 200 | 1720 | 1430 |
